Results from PubChem BioAssay AID2060903 (Molecular Pharmacology Branch, DTP, NCI, 2025).

System: 377384-186-R-J1-PDC complex spheroid viability
Assay: Anticancer human tumor 377384-186-R-J1-PDC patient-derived pancreatic carcinoma cell line growth inhibition [RAS]
Conditions: for IC50: curve of first compound; for viability, T/C: stronger effect = lower value
In short: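 Multi-cell-type spheroids: tumor cells plus HUVEC endothelial cells and mesenchymal stem cells. RAS-pathway inhibitors were combined with targeted agents, each dosed in half-log steps down from clinical Cmax, or from 10 microM when Cmax was unknown.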

[1] = second compound 0.00316 µM, first compound 0.0316 µM
[2] = second compound 0.00316 µM, first compound 0.1 µM
[3] = second compound 0.00316 µM, first compound 0.316 µM
[4] = second compound 0.00316 µM, first compound 1 µM
[5] = second compound 0.00316 µM, first compound 3.16 µM
[6] = second compound 0.00316 µM, first compound 10 µM
[7] = second compound 0.01 µM, first compound 0.0316 µM
[8] = second compound 0.01 µM, first compound 0.1 µM
[9] = second compound 0.01 µM, first compound 0.316 µM
[10] = second compound 0.01 µM, first compound 1 µM
[11] = second compound 0.01 µM, first compound 3.16 µM
[12] = second compound 0.01 µM, first compound 10 µM
[13] = second compound 0.0316 µM, first compound 0.0316 µM
[14] = second compound 0.0316 µM, first compound 0.1 µM
[15] = second compound 0.0316 µM, first compound 0.316 µM
[16] = second compound 0.0316 µM, first compound 1 µM
[17] = second compound 0.0316 µM, first compound 3.16 µM
[18] = second compound 0.0316 µM, first compound 10 µM
[19] = second compound 0.1 µM, first compound 0.0316 µM
[20] = second compound 0.1 µM, first compound 0.1 µM
[21] = second compound 0.1 µM, first compound 0.316 µM
[22] = second compound 0.1 µM, first compound 1 µM
[23] = second compound 0.1 µM, first compound 3.16 µM
[24] = second compound 0.1 µM, first compound 10 µM
[25] = second compound 0.316 µM, first compound 0.0316 µM
[26] = second compound 0.316 µM, first compound 0.1 µM
[27] = second compound 0.316 µM, first compound 0.316 µM
[28] = second compound 0.316 µM, first compound 1 µM
[29] = second compound 0.316 µM, first compound 3.16 µM
[30] = second compound 0.316 µM, first compound 10 µM
[31] = second compound 1 µM, first compound 0.0316 µM
[32] = second compound 1 µM, first compound 0.1 µM
[33] = second compound 1 µM, first compound 0.316 µM
[34] = second compound 1 µM, first compound 1 µM
[35] = second compound 1 µM, first compound 3.16 µM
[36] = second compound 1 µM, first compound 10 µM
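Note: spheroids exposed to compounds for seven days before readout.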

## CC(C)NCC(C(=O)N1CCN(c2ncnc3c2C(C)CC3O)CC1)c1ccc(Cl)cc1 (stereo unspecified) + C=CC(=O)N1CCN(c2nc(OCC3CCCN3C)nc3c(F)c(-c4nc(N)cc(C)c4C(F)(F)F)c(Cl)cc23)C(C)C1
Second compound 0.00316 µM
  IC50: 2320 nM
Second compound 0.01 µM
  IC50: 2670 nM
Second compound 0.0316 µM
  IC50: 2780 nM
Second compound 0.1 µM
  IC50: 2450 nM
Second compound 0.316 µM
  IC50: 1760 nM
Second compound 1 µM
  IC50: 2060 nM
[1]
  viability, T/C: 80.9%
[2]
  viability, T/C: 95%
[3]
  viability, T/C: 87.4%
[4]
  viability, T/C: 61.7%
[5]
  viability, T/C: 48.6%
[6]
  viability, T/C: 32.6%
[7]
  viability, T/C: 96.8%
[8]
  viability, T/C: 78.1%
[9]
  viability, T/C: 73.7%
[10]
  viability, T/C: 63.3%
[11]
  viability, T/C: 46.4%
[12]
  viability, T/C: 35.9%
[13]
  viability, T/C: 91.3%
[14]
  viability, T/C: 96.7%
[15]
  viability, T/C: 70%
[16]
  viability, T/C: 67.1%
[17]
  viability, T/C: 47.4%
[18]
  viability, T/C: 38.1%
[19]
  viability, T/C: 99.8%
[20]
  viability, T/C: 85%
[21]
  viability, T/C: 86.5%
[22]
  viability, T/C: 58.7%
[23]
  viability, T/C: 48.2%
[24]
  viability, T/C: 35.5%
[25]
  viability, T/C: 89.4%
[26]
  viability, T/C: 102%
[27]
  viability, T/C: 80.9%
[28]
  viability, T/C: 56%
[29]
  viability, T/C: 47.8%
[30]
  viability, T/C: 35%
[31]
  viability, T/C: 91.8%
[32]
  viability, T/C: 97%
[33]
  viability, T/C: 75.1%
[34]
  viability, T/C: 61.7%
[35]
  viability, T/C: 44.4%
[36]
  viability, T/C: 32.8%

## CC(C)n1nc(-c2ccc3oc(N)nc3c2)c2c(N)ncnc21 + C=CC(=O)N1CCN(c2nc(OCC3CCCN3C)nc3c(F)c(-c4nc(N)cc(C)c4C(F)(F)F)c(Cl)cc23)C(C)C1
Second compound 0.00316 µM
  IC50: 12.2 nM
Second compound 0.01 µM
  IC50: 15 nM
Second compound 0.0316 µM
  IC50: 15.7 nM
Second compound 0.1 µM
  IC50: 11.3 nM
Second compound 0.316 µM
  IC50: 12.7 nM
Second compound 1 µM
  IC50: 15.2 nM
Second compound 0.00316 µM, first compound 0.000316 µM
  viability, T/C: 93.6%
Second compound 0.00316 µM, first compound 0.001 µM
  viability, T/C: 80.3%
Second compound 0.00316 µM, first compound 0.00316 µM
  viability, T/C: 76%
Second compound 0.00316 µM, first compound 0.01 µM
  viability, T/C: 50.8%
[1]
  viability, T/C: 35.4%
[2]
  viability, T/C: 21.1%
Second compound 0.01 µM, first compound 0.000316 µM
  viability, T/C: 87.2%
Second compound 0.01 µM, first compound 0.001 µM
  viability, T/C: 83.1%
Second compound 0.01 µM, first compound 0.00316 µM
  viability, T/C: 68.2%
Second compound 0.01 µM, first compound 0.01 µM
  viability, T/C: 59.4%
[7]
  viability, T/C: 36.6%
[8]
  viability, T/C: 19.9%
Second compound 0.0316 µM, first compound 0.000316 µM
  viability, T/C: 90.5%
Second compound 0.0316 µM, first compound 0.001 µM
  viability, T/C: 76.3%
Second compound 0.0316 µM, first compound 0.00316 µM
  viability, T/C: 64.7%
Second compound 0.0316 µM, first compound 0.01 µM
  viability, T/C: 61.8%
[13]
  viability, T/C: 40%
[14]
  viability, T/C: 17.4%
Second compound 0.1 µM, first compound 0.000316 µM
  viability, T/C: 91.5%
Second compound 0.1 µM, first compound 0.001 µM
  viability, T/C: 77.2%
Second compound 0.1 µM, first compound 0.00316 µM
  viability, T/C: 67.4%
Second compound 0.1 µM, first compound 0.01 µM
  viability, T/C: 50.5%
[19]
  viability, T/C: 37.9%
[20]
  viability, T/C: 23.7%
Second compound 0.316 µM, first compound 0.000316 µM
  viability, T/C: 81.3%
Second compound 0.316 µM, first compound 0.001 µM
  viability, T/C: 82.2%
Second compound 0.316 µM, first compound 0.00316 µM
  viability, T/C: 70%
Second compound 0.316 µM, first compound 0.01 µM
  viability, T/C: 48.5%
[25]
  viability, T/C: 40%
[26]
  viability, T/C: 18%
Second compound 1 µM, first compound 0.000316 µM
  viability, T/C: 89.7%
Second compound 1 µM, first compound 0.001 µM
  viability, T/C: 89.2%
Second compound 1 µM, first compound 0.00316 µM
  viability, T/C: 81.7%
Second compound 1 µM, first compound 0.01 µM
  viability, T/C: 55.4%
[31]
  viability, T/C: 37.7%
[32]
  viability, T/C: 20.4%

## CC(Nc1ccc2c(c1)OCCn1cc(N3C(=O)OCC3C(F)F)nc1-2)C(N)=O (stereo unspecified) + C=CC(=O)N1CCN(c2nc(OCC3CCCN3C)nc3c(F)c(-c4nc(N)cc(C)c4C(F)(F)F)c(Cl)cc23)C(C)C1
Second compound 0.00316 µM
  IC50: 739 nM
Second compound 0.01 µM
  IC50: 575 nM
Second compound 0.0316 µM
  IC50: 443 nM
Second compound 0.1 µM
  IC50: 775 nM
Second compound 0.316 µM
  IC50: 255 nM
Second compound 1 µM
  IC50: 647 nM
[1]
  viability, T/C: 73.4%
[2]
  viability, T/C: 72.2%
[3]
  viability, T/C: 52.8%
[4]
  viability, T/C: 48.1%
[5]
  viability, T/C: 38.4%
[6]
  viability, T/C: 28.4%
[7]
  viability, T/C: 76.8%
[8]
  viability, T/C: 63.5%
[9]
  viability, T/C: 54.8%
[10]
  viability, T/C: 46.6%
[11]
  viability, T/C: 37.9%
[12]
  viability, T/C: 32.8%
[13]
  viability, T/C: 86.2%
[14]
  viability, T/C: 68.2%
[15]
  viability, T/C: 55.7%
[16]
  viability, T/C: 40.3%
[17]
  viability, T/C: 34.2%
[18]
  viability, T/C: 32.1%
[19]
  viability, T/C: 78.9%
[20]
  viability, T/C: 73.3%
[21]
  viability, T/C: 60.5%
[22]
  viability, T/C: 45%
[23]
  viability, T/C: 40.1%
[24]
  viability, T/C: 30.6%
[25]
  viability, T/C: 89.7%
[26]
  viability, T/C: 63%
[27]
  viability, T/C: 43.2%
[28]
  viability, T/C: 44.8%
[29]
  viability, T/C: 33.5%
[30]
  viability, T/C: 32%
[31]
  viability, T/C: 79.2%
[32]
  viability, T/C: 68.2%
[33]
  viability, T/C: 53.5%
[34]
  viability, T/C: 48.4%
[35]
  viability, T/C: 38%
[36]
  viability, T/C: 32.2%
